Reference: patent publication US20060173022A1, “Heterocyclic amides, method for the production thereof, substances containing said heterocyclic amides, and use thereof as pesticides” (Bayer CropScience GmbH, priority 2003, published 2006)

## CO/N=C/CCNC(=O)c1cnccc1C(F)(F)F [Example I, N-(4-Trifluoromethylnicotinoyl)-3-aminopropionaldehyde O-methyl oxime]
  melting point: 80 to 82 °C
